This note sets out measurements from US20250129044A1 (priority 2021, published 2025).

In general, EC50 refers to the concentration giving half of the maximal effect.

Where a name gives a salt, the structure may show the parent alone.

The test has as its target sodium channel isoforms (Homo sapiens, UniProt P35498). It counts as cell-based. Conditions: area under the sodium current trace, step from −120 mV to 0 mV, HEK cells. The protocol: The sodium channel isoforms of interest are stably expressed in Human Embryonic Kidney Cells and the currents that flow through those channels in response to a depolarizing voltage clamp step from −120 mV to 0 mV are measured in the presence of increasing concentrations of the chemical agents. The area under the sodium current trace which correlates to the magnitude of sodium flux through the cell membrane is used to quantify the effects on gating of the channels. Other parameters that are measured in the assay include the peak current, time constant of open state inactivation and the voltage dependence of steady state inactivation properties. The concentration responses are used to determine potency of each chemical agents effects on modulating the sodium channel isoform gating. Such techniques are known to those skilled in the art, and may be developed, using current technologies, into low or medium throughput assays for evaluating compounds for their ability to modulate sodium channel behaviour.
As to `CC(C)c1ncc(C(=O)Nc2c(-c3ccccc3F)ccnc2C2CCOCC2)cn1` [Example 14, N-(4-(2-fluorophenyl)-2-(tetrahydro-2H-pyran-4-yl)pyridin-3-yl)-2-isopropylpyrimidine-5-carboxamide], the “Empirical Emax” value is given as “+++ (+++ indicates a value from 5.0 up to 7.5 μM)”.
Take `CC(C)c1ncc(C(=O)Nc2c(-c3ccccc3F)ccnc2C2CCC3(CC2)CC3)cn1` [Example 28, N-[4-(2-fluorophenyl)-2-spiro[2.5]octan-6-yl-3-pyridyl]-2-isopropyl-pyrimidine-5-carboxamide]: the “Empirical Emax” value is recorded as “++ (++ indicates a value from 2.0 up to 5.0 μM)”.
The same measure, in the same setting: the result for `CC(C)c1ncc(C(=O)Nc2c(-c3ccccn3)ccnc2C2CCC(F)(F)CC2)cn1` [Example 55, N-(2′-(4,4-difluorocyclohexyl)-[2,4′-bipyridin]-3′-yl)-2-isopropylpyrimidine-5-carboxamide] reads “+++ (+++ indicates a value from 5.0 up to 7.5 μM)”; that for `CCOc1ncc(C(=O)Nc2c(-c3ccccc3F)ccnc2C2CCC(F)(F)CC2)cn1` [Example 3, N-[2-(4,4-difluorocyclohexyl)-4-(2-fluorophenyl)-3-pyridyl]-2-ethoxy-pyrimidine-5-carboxamide], “++++ (++++ indicates a value greater than 7.5)”; that for `CC(C)c1ncc(C(=O)Nc2c(-c3ccccc3F)ccnc2C2CCCN2C)cn1` (racemic) [Example 42, (±)—N-(4-(2-fluorophenyl)-2-(1-methylpyrrolidin-2-yl)pyridin-3-yl)-2-isopropylpyrimidine-5-carboxamide], “+ (+ indicates a value less than 2.0 μM)”.
The same measure, in the same setting: the result for `CC(C)c1ncc(C(=O)Nc2c(-c3ccccc3)ccnc2C2CCOCC2)cn1` [Example 10, 2-isopropyl-N-(4-phenyl-2-(tetrahydro-2H-pyran-4-yl)pyridin-3-yl)pyrimidine-5-carboxamide] reads “++ (++ indicates a value from 2.0 up to 5.0 μM)”; that for `Fc1ccc(F)c(-c2ccnc(C3CCC(F)(F)CC3)c2-c2nc3c([nH]2)COCC3)c1` [Example 47, 2-(2-(4,4-difluorocyclohexyl)-4-(2,5-difluorophenyl)pyridin-3-yl)-3,4,6,7-tetrahydropyrano[3,4-d]imidazole], “+++ (+++ indicates a value from 5.0 up to 7.5 μM)”.
The same measure, in the same setting: for `CC(C)c1ccc(NC(=O)c2c(-c3ccccc3F)ccnc2C2=CCOCC2)cn1` [Example 52] the value was “+ (+ indicates a value less than 2.0 μM)”.
In the case of `O=C(Nc1c(-c2cc(F)ccc2F)ccnc1C1CCC(F)(F)CC1)c1cnc(N2C3CCCC2CC3)nc1` [Example 165, 2-(8-azabicyclo[3.2.1]octan-8-yl)-N-(2-(4,4-difluorocyclohexyl)-4-(2,5-difluorophenyl)pyridin-3-yl)pyrimidine-5-carboxamide], the concentration giving a half-maximal response (EC50) is < 1 µM.
Turning to `FC1(F)CCC(c2nccc(-c3ccccc3)c2-c2nc3c([nH]2)COCC3)CC1` [Example 46, 2-(2-(4,4-difluorocyclohexyl)-4-phenylpyridin-3-yl)-3,4,6,7-tetrahydropyrano[3,4-d]imidazole], the “Empirical Emax” value is on record as “+++ (+++ indicates a value from 5.0 up to 7.5 μM)”.
On the same count and under the same terms, the result for `O=C(Nc1ccc(Cl)nc1)c1c(-c2ccccc2F)ccnc1C1=CCCC1` [Example 50, N-(6-chloropyridin-3-yl)-2-(cyclopent-1-en-1-yl)-4-(2-fluorophenyl)nicotinamide] reads “+ (+ indicates a value less than 2.0 μM)”.
Take `O=C(Nc1c(-c2cc(F)ccc2F)ccnc1C1CCC(F)(F)CC1)c1cnc(N2CC3CC(C3)C2)nc1` [Example 166, 2-(3-azabicyclo[3.1.1]heptan-3-yl)-N-(2-(4,4-difluorocyclohexyl)-4-(2,5-difluorophenyl)pyridin-3-yl)pyrimidine-5-carboxamide]: the EC50 is < 1 µM.
As to `CC(C)c1ncc(C(=O)Nc2c(C3=CCCCO3)ccnc2C2CCC(F)(F)CC2)cn1` [Example 54, N-(2-(4,4-difluorocyclohexyl)-4-(3,4-dihydro-2H-pyran-6-yl)pyridin-3-yl)-2-isopropylpyrimidine-5-carboxamide], the “Empirical Emax” value is on record as “++++ (++++ indicates a value greater than 7.5)”.
`CC(C)c1ncc(C(=O)Nc2c(-c3ccccc3F)ccnc2C2CCCCC2)cn1` [Example 17, N-[2-cyclohexyl-4-(2-fluorophenyl)-3-pyridyl]-2-isopropyl-pyrimidine-5-carboxamide]: the “Empirical Emax” value is “+++ (+++ indicates a value from 5.0 up to 7.5 μM)”.
As to `CC(C)c1ncc(C(=O)Nc2c(-c3ccccc3F)ccnc2C2CC(F)(F)CCN2C)cn1` (racemic) [Example 43], the “Empirical Emax” value was “++ (++ indicates a value from 2.0 up to 5.0 μM)”.
As to `CC(C)c1ncc(C(=O)Nc2c(-c3ccccc3)ccnc2C2CCCO2)cn1` (racemic) [Example 11, (±)-2-isopropyl-N-(4-phenyl-2-(tetrahydrofuran-2-yl)pyridin-3-yl)pyrimidine-5-carboxamide], the “Empirical Emax” value was “+ (+ indicates a value less than 2.0 μM)”.
Consider `CC(C)c1ncc(C(=O)Nc2c(-c3ccccc3F)ccnc2C2CC3(COC3)C2)cn1` [Example 36, N-(4-(2-fluorophenyl)-2-(2-oxaspiro[3.3]heptan-6-yl)pyridin-3-yl)-2-isopropylpyrimidine-5-carboxamide], for which the “Empirical Emax” value is “+++ (+++ indicates a value from 5.0 up to 7.5 μM)”.
On the same count and under the same terms, the result for `CC(C)c1ncc(C(=O)Nc2c(-c3ccccc3F)ccnc2C2CCCC(F)(F)CC2)cn1` (racemic) [Example 37, (±)-N-(2-(4,4-difluorocycloheptyl)-4-(2-fluorophenyl)pyridin-3-yl)-2-isopropylpyrimidine-5-carboxamide] reads “+++ (+++ indicates a value from 5.0 up to 7.5 μM)”.
`C1=C(c2nccc(-c3ccccc3)c2-c2nc3c([nH]2)COCC3)CCOC1` [Example 44, 2-(2-(3,6-dihydro-2H-pyran-4-yl)-4-phenylpyridin-3-yl)-3,4,6,7-tetrahydropyrano[3,4-d]imidazole]: the “Empirical Emax” value is listed as “+ (+ indicates a value less than 2.0 μM)”.
Still for that read-out and setting: the result for `CC(C)c1ncc(C(=O)Nc2c(-c3ccccc3F)ccnc2[C@H]2CC[C@H](F)CC2)cn1` [Example 34] reads “+++ (+++ indicates a value from 5.0 up to 7.5 μM)”; that for `CC(C)c1ncc(C(=O)Nc2c(-c3ccccc3F)ccnc2C2CCCC(F)(F)C2)cn1` (stereo not drawn) [Example 26, N-[2-(3,3-difluorocyclohexyl)-4-(2-fluorophenyl)-3-pyridyl]-2-isopropyl-pyrimidine-5-carboxamide], “+++ (+++ indicates a value from 5.0 up to 7.5 μM)”; that for `O=C(Nc1ccc(Cl)nc1)c1c(-c2ccccc2F)ccnc1C1CCCC1` [Example 49, N-(6-chloropyridin-3-yl)-2-cyclopentyl-4-(2-fluorophenyl)nicotinamide], “+ (+ indicates a value less than 2.0 μM)”.
Still for that read-out and setting: for `CC(C)c1ncc(C(=O)Nc2c(-c3ccccc3F)ccnc2[C@H]2CC[C@@H](F)CC2)cn1` [Example 33] the value was “+++ (+++ indicates a value from 5.0 up to 7.5 μM)”; for `CC(C)c1ncc(C(=O)Nc2c(-c3ccccc3F)ccnc2C2CC(F)(F)CN2C(=O)OC(C)(C)C)cn1` (stereo not drawn) [Example 31, tert-butyl 4,4-difluoro-2-[4-(2-fluorophenyl)-3-[(2-isopropylpyrimidine-5-carbonyl)amino]-2-pyridyl]pyrrolidine-1-carboxylate], “+ (+ indicates a value less than 2.0 μM)”; for `c1ccc(-c2ccnc(C3CCOCC3)c2-c2nc3c([nH]2)COCC3)cc1` [Example 45, 2-(4-phenyl-2-(tetrahydro-2H-pyran-4-yl)pyridin-3-yl)-3,4,6,7-tetrahydropyrano[3,4-d]imidazole], “+ (+ indicates a value less than 2.0 μM)”.
The same measure, in the same setting: for `COC1CCN(C(=O)Nc2c(-c3ccccc3F)ccnc2C2CCC(F)(F)CC2)CC1` [Example 5, N-[2-(4,4-difluorocyclohexyl)-4-(2-fluorophenyl)-3-pyridyl]-4-methoxy-piperidine-1-carboxamide] the value was “+++ (+++ indicates a value from 5.0 up to 7.5 μM)”.
In the case of `CC(C)c1ncc(C(=O)Nc2c(-c3ccccc3F)ccnc2C2CC(F)(F)CCN2C(=O)OC(C)(C)C)cn1` (stereo not drawn) [Example 20, tert-butyl 4,4-difluoro-2-[4-(2-fluorophenyl)-3-[(2-isopropylpyrimidine-5-carbonyl)amino]-2-pyridyl]piperidine-1-carboxylate], the “Empirical Emax” value is listed as “+ (+ indicates a value less than 2.0 μM)”.
For the compound `O=C(Nc1c(-c2cc(F)ccc2F)ccnc1C1CCC(F)(F)CC1)c1cnc(N2C3CCC2CC3)nc1` [Example 177, 2-(7-azabicyclo[2.2.1]heptan-7-yl)-N-(2-(4,4-difluorocyclohexyl)-4-(2,5-difluorophenyl)pyridin-3-yl)pyrimidine-5-carboxamide], the half-maximal effective concentration (EC50) was < 1 µM.
Consider `CC(C)c1ncc(C(=O)Nc2c(-c3ccccc3F)ccnc2C2CC3(C2)CC(F)(F)C3)cn1` [Example 19, N-[2-(2,2-difluorospiro[3.3]heptan-6-yl)-4-(2-fluorophenyl)-3-pyridyl]-2-isopropyl-pyrimidine-5-carboxamide], for which the “Empirical Emax” value is “++ (++ indicates a value from 2.0 up to 5.0 μM)”.
Still for that read-out and setting: the result for `CC(C)c1ncc(C(=O)Nc2c(-c3ccccc3F)ccnc2C2CC(F)(F)CCN2)cn1` (racemic) [Example 41, (±)—N-[2-(4,4-difluoro-2-piperidyl)-4-(2-fluorophenyl)-3-pyridyl]-2-isopropyl-pyrimidine-5-carboxamide hydrochloric acid salt] reads “++ (++ indicates a value from 2.0 up to 5.0 μM)”.
